Values quoted from earlier work in patent US20160032347A1, “NOVEL METHOD AND DEVICE FOR WHOLE-CELL BACTERIAL BIO-CAPACITOR CHIP FOR DETECTING CELLULAR STRESS INDUCED BY TOXIC CHEMICALS” (Sabanci Universitesi, priority 2011, published 2016).

System: E. coli
Conditions: previous studies; ~6.5%

[Cl-].[Na+] [NaCl, sodium chloride]
salt tolerance level reported for E. coli: up to 1.1 M
